The values that follow come from US8034817B2, “Treatment of bacterial diseases of the respiratory organs” (Bayer Pharma Aktiengesellschaft, priority 2003, dated 2011).

Where a name gives a salt, the structure may show the parent alone. Read-outs that look alike come from different tables or passages of the source.

Data set [1] concerns P. aeruginosa DSM 12055. In words: Efficacy in a model of lung infection with P. aeruginosa, treatment 1 and 4 hours after infection, microbe count in the lungs. It is filed as in vivo, P. aeruginosa (host: female Wistar rats). Particulars: lungs after 24 h relative to untreated infection control, average for 5 animals. As to the method: Efficacy in a Model of Lung Infection with P. aeruginosa
[…]. Various dose groups each of 5 rats were employed. The animals were sacrificed 24 hours after the infection, and the lungs were removed and homogenized with a Potter from Braun. The homogenates were plated out to determine the microbe count in the lungs.

The conditions of data set [2]: average for 3 animals.
The test system of data set [3] is P. aeruginosa DSM 12055. In words: Further test with P. aeruginosa DSM 12055, single intratracheal dry powder treatment, microbe count in the lungs. It counts as in vivo, P. aeruginosa (host: rats). To be noted: single intratracheal treatment 1 hour after infection, 10 mg/kg, DP-3 dry powder insufflator. As for the experimental part: A dose of 10 mg/kg was administered with the aid of a DP-3 dry powder insufflator (PENN-CENTURY, INC.). It is known from control investigations that about 5 to 20% of the administered dose reach the lungs.

The conditions of data set [4]: rats; serum and lungs.
[5] abbreviates: 0.5 h, 7.5 mg/kg intratracheally as suspension, 7.5 mg/kg.
[6] abbreviates: 1 h, 7.5 mg/kg intratracheally as suspension, 7.5 mg/kg.
Where [7] appears, read: 3 h, 7.5 mg/kg intratracheally as suspension, 7.5 mg/kg.
The mark [8] stands for this setting: 5 h, 7.5 mg/kg intratracheally as suspension, 7.5 mg/kg.

As to `O=C(O)c1cn(C2CC2)c2cc(N3CCNCC3)c(F)cc2c1=O` [ciprofloxacin betaine (laboratory product)], the “Reduction in microbe count” value in data set [1] (0.8 mg/kg i.t.) is −4.0 log units; in data set [1] (2.5 mg/kg i.t.) it was −5.8 log units; in data set [1] (7.5 mg/kg i.t.), −10 log units. Further, the Lung concentration is 44.3 µg/mL in data set [2] (setting [5]), 40.1 µg/mL in data set [2] (setting [6]), 12.6 µg/mL in data set [2] (setting [7]) and 7.21 µg/mL in data set [2] (setting [8]).

Regarding `O=C(O)c1cn(C2CC2)c2cc(N3CCNCC3)c(F)cc2c1=O` [ciprofloxacin betaine (micronized), ciprofloxacin betaine], the “Reduction of the microbe count in the lungs compared with an untreated control group” value in data set [3] is reported as “more than 6 log units”. Moreover, the Lung concentration in data set [2] (0.25 h, 7.5 mg/kg intratracheally as suspension, 7.5 mg/kg) was 76 µg/mL; in data set [2] (setting [5]), 76 µg/mL; in data set [2] (setting [6]), 76 µg/mL; in data set [2] (setting [7]) it was 54 µg/mL; in data set [2] (setting [8]) it was 54 µg/mL.

For the molecule `Cl.O=C(O)c1cn(C2CC2)c2cc(N3CCNCC3)c(F)cc2c1=O` [ciprofloxacin hydrochloride], the “Reduction in microbe count” value in data set [1] (0.8 mg/kg i.t.) was −1.8 log units; in data set [1] (2.5 mg/kg i.t.) it was −1.1 log units; in data set [1] (2.5 mg/kg i.v.) it was −2.8 log units; in data set [1] (7.5 mg/kg i.t.), −2.8 log units; in data set [1] (7.5 mg/kg i.v.), −3.5 log units; in data set [1] (22.5 mg/kg i.v.), −5.4 log units. Further, in data set [1] (67.5 mg/kg i.v.), the “Reduction in microbe count” value was −8.8 log units. The Lung concentration in data set [2] (0.25 h, 7.5 mg/kg intravenously as solution) is 0.61 µg/mL; in data set [2] (0.5 h, 7.5 mg/kg intratracheally as solution) it was 1.67 µg/mL; in data set [2] (0.5 h, 7.5 mg/kg intravenously as solution), 0.35 µg/mL; in data set [2] (1 h, 7.5 mg/kg intratracheally as solution), 0.63 µg/mL; in data set [2] (1 h, 7.5 mg/kg intravenously as solution), 0.14 µg/mL; in data set [2] (3 h, 7.5 mg/kg intratracheally as solution), 0.10 µg/mL. In addition, the Lung concentration in data set [2] (3 h, 7.5 mg/kg intravenously as solution) was 0 µg/mL; in data set [2] (5 h, 7.5 mg/kg intratracheally as solution) it was 0 µg/mL; in data set [2] (5 h, 7.5 mg/kg intravenously as solution), 0 µg/mL.

Regarding `COc1c(N2C[C@@H]3CCCN[C@@H]3C2)c(F)cc2c(=O)c(C(=O)O)cn(C3CC3)c12` [moxifloxacin hydrochloride, Moxifloxacin hydrochloride], the “Fall of the concentration after intratracheal administration to the level reached orally” value in data set [4] was “within about an hour”.
